Test results taken from ChEMBL document CHEMBL5620361, “A prodrug of the capsid assembly modulator improved druggability and lowing HBsAg and HBeAg for the treatment of chronic hepatitis B” (Eur J Med Chem, 2023).
Values joined by “and” are separate entries in the source; they are usually repeats but may differ in a detail not shown here. Equal entries are not always repeated. Active and inactive are the calls of the source. The rule behind the calls is not given here.

Assays:
[1] = test system: Hepatitis B virus; assay: Antiviral activity against HBV in human HepG2.2.15 cells harboring HBV genome assessed as reduction in HBV ssDNA incubated for 8 days by Southern blot analysis; assay type: functional, organism-based; settings: dose <= 800.0 nM, time 8.0 day
[2] = Cytotoxicity against human HepG2.2.15 cells harboring HBV genome incubated for 8 days by MTT assay; assay type: toxicity, cell-based, HepG2 2.2.15; settings: time 8 day
[3] = Prodrug conversion in ICR mouse assessed as AUClast of 3-((3-chloro-5-(3-(4-cyanobenzyl)-4-oxo-3,4-dihydrophthalazin-1-yl)-6-fluoropyridin-2-yl)amino)propanoic acid metabolite at 20 mg/kg, po measured for 24 hrs by LC-MS/MS analysis; assay type: ADME, organism-based; settings: in vivo
[4] = test system: Hepatitis B virus; assay: Antiviral activity against HBV in human HepG2.2.15 cells harboring HBV genome assessed as formation of fast-migrating capsids lacking capsid-associated HBV DNA upto 80 nM by native agarose gel electrophoresis; assay type: functional, organism-based
[5] = test system: HepG2.2.15; assay: Inhibition of HBeAg secretion in human HepG2.2.15 cells harboring HBV genome incubated for 8 days; assay type: functional, cell-based; settings: Hepatitis B virus, time 8.0 day
[6] = AUClast in ICR mouse at 20 mg/kg, po measured for 24 hrs byb LC-MS/MS analysis; assay type: ADME, organism-based; settings: in vivo
[7] = Cmax in ICR mouse at 20 mg/kg, po measured for 24 hrs byb LC-MS/MS analysis; assay type: ADME, organism-based; settings: in vivo
[8] = Prodrug conversion in ICR mouse assessed as Cmax of 3-((3-chloro-5-(3-(4-cyanobenzyl)-4-oxo-3,4-dihydrophthalazin-1-yl)-6-fluoropyridin-2-yl)amino)propanoic acid metabolite at 20 mg/kg, po measured for 24 hrs by LC-MS/MS analysis; assay type: ADME, organism-based; settings: in vivo
[9] = test system: HepG2.2.15; assay: Inhibition of HBsAg secretion in human HepG2.2.15 cells harboring HBV genome incubated for 8 days; assay type: functional, cell-based; settings: Hepatitis B virus, time 8.0 day
[10] = Half life in ICR mouse at 20 mg/kg, po measured for 24 hrs byb LC-MS/MS analysis; assay type: ADME, organism-based; settings: in vivo
[11] = Tmax in ICR mouse at 20 mg/kg, po measured for 24 hrs byb LC-MS/MS analysis; assay type: ADME, organism-based; settings: in vivo
[12] = Prodrug conversion in ICR mouse assessed as Tmax of 3-((3-chloro-5-(3-(4-cyanobenzyl)-4-oxo-3,4-dihydrophthalazin-1-yl)-6-fluoropyridin-2-yl)amino)propanoic acid metabolite at 20 mg/kg, po measured for 24 hrs by LC-MS/MS analysis; assay type: ADME, organism-based; settings: in vivo
[13] = test system: Hepatitis B virus; assay: Antiviral activity against HBV in human HepG2.2.15 cells harboring HBV genome assessed as reduction in HBV rcDNA incubated for 8 days by Southern blot analysis; assay type: functional, organism-based; settings: dose <= 800.0 nM, time 8.0 day
[14] = test system: Hepatitis B virus; assay: Antiviral activity against HBV in human HepG2.2.15 cells harboring HBV genome assessed as reduction in HBV DNA incubated for 8 days by real-time PCR analysis; assay type: functional, organism-based
[15] = test system: Mus musculus; assay: Effect on intrahepatic HBcAg expression in Balb/c mouse model infected with adeno-associated virus harbouring HBV 1.3 genome at 1 mg/kg, po qd for 4 weeks by Western blot analysis; assay type: functional, organism-based
[16] = test system: Hepatitis B virus; assay: Antiviral activity against HBV in Balb/c mouse model infected with adeno-associated virus harbouring HBV 1.3 genome assessed as reduction in plasma HBV DNA at 1 mg/kg, po qd for 7 weeks followed by drug removal measured after 8 weeks by real-time PCR analysis; assay type: functional, organism-based
[17] = test system: Hepatitis B virus; assay: Antiviral activity against HBV in Balb/c mouse model infected with adeno-associated virus harbouring HBV 1.3 genome assessed as reduction in intrahepatic HBV DNA at 1 mg/kg, po qd for 4 weeks by Southern blot analysis; assay type: functional, organism-based
[18] = test system: Mus musculus; assay: Effect on HBeAg expression in Balb/c mouse model infected with adeno-associated virus harbouring HBV 1.3 genome at 1 mg/kg, po qd for 7 weeks followed by drug removal measured after 8 weeks by chemiluminescence immunoassay; assay type: functional, organism-based
[19] = test system: Mus musculus; assay: Effect on HBsAg expression in Balb/c mouse model infected with adeno-associated virus harbouring HBV 1.3 genome at 1 mg/kg, po qd for 7 weeks followed by drug removal measured after 8 weeks by chemiluminescence immunoassay; assay type: functional, organism-based
[20] = Prodrug conversion in ICR mouse assessed as AUClast of 4-((4-(5-chloro-2-fluoro-6-((3-hydroxypropyl)amino)pyridin-3-yl)-1-oxophthalazin-2(1H)-yl)methyl)benzonitrile metabolite at 20 mg/kg, po measured for 24 hrs by LC-MS/MS analysis; assay type: ADME, organism-based; settings: in vivo
[21] = Prodrug conversion in ICR mouse assessed as Cmax of 4-((4-(5-chloro-2-fluoro-6-((3-hydroxypropyl)amino)pyridin-3-yl)-1-oxophthalazin-2(1H)-yl)methyl)benzonitrile metabolite at 20 mg/kg, po measured for 24 hrs by LC-MS/MS analysis; assay type: ADME, organism-based; settings: in vivo
[22] = test system: Hepatitis B virus; assay: Antiviral activity against HBV in Balb/c mouse model infected with adeno-associated virus harbouring HBV 1.3 genome assessed as reduction in intrahepatic HBcAg level administered orally twice daily for 4 weeks by Western blot analysis; assay type: functional, organism-based; settings: dose 50-75 mg/kg, route po
[23] = test system: Hepatitis B virus; assay: Antiviral activity against HBV in Balb/c mouse model infected with adeno-associated virus harbouring HBV 1.3 genome assessed as reduction in plasma HBsAg level at 100 mg/kg, po bid for 7 weeks followed by drug removal measured after 8 weeks by chemiluminescence immunoassay; assay type: functional, organism-based
[24] = Prodrug conversion in ICR mouse assessed as half life of 4-((4-(5-chloro-2-fluoro-6-((3-hydroxypropyl)amino)pyridin-3-yl)-1-oxophthalazin-2(1H)-yl)methyl)benzonitrile metabolite at 20 mg/kg, po measured for 24 hrs by LC-MS/MS analysis; assay type: ADME, organism-based; settings: in vivo
[25] = test system: Hepatitis B virus; assay: Antiviral activity against HBV in Balb/c mouse model infected with adeno-associated virus harbouring HBV 1.3 genome assessed as reduction in intrahepatic HBV DNA administered orally twice daily for 4 weeks by Southern blot analysis; assay type: functional, organism-based; settings: dose 50-75 mg/kg, route po
[26] = Prodrug conversion in ICR mouse assessed as Tmax of 4-((4-(5-chloro-2-fluoro-6-((3-hydroxypropyl)amino)pyridin-3-yl)-1-oxophthalazin-2(1H)-yl)methyl)benzonitrile metabolite at 20 mg/kg, po measured for 24 hrs by LC-MS/MS analysis; assay type: ADME, organism-based; settings: in vivo
[27] = test system: Hepatitis B virus; assay: Antiviral activity against HBV in Balb/c mouse model infected with adeno-associated virus harbouring HBV 1.3 genome assessed as reduction in plasma HBV DNA at 100 mg/kg, po bid for 7 weeks followed by drug removal measured after 8 weeks by real-time PCR analysis; assay type: functional, organism-based
[28] = Prodrug conversion in ICR mouse assessed as half life of 3-((3-chloro-5-(3-(4-cyanobenzyl)-4-oxo-3,4-dihydrophthalazin-1-yl)-6-fluoropyridin-2-yl)amino)propanoic acid metabolite at 20 mg/kg, po measured for 24 hrs by LC-MS/MS analysis; assay type: ADME, organism-based; settings: in vivo
[29] = test system: Hepatitis B virus; assay: Antiviral activity against HBV in Balb/c mouse model infected with adeno-associated virus harbouring HBV 1.3 genome assessed as reduction in serum HBV DNA administered orally twice daily for 4 weeks by real-time PCR analysis; assay type: functional, organism-based; settings: dose 25-75 mg/kg, route po
[30] = Toxicity in Balb/c mouse model infected with adeno-associated virus harbouring HBV 1.3 genome at 100 mg/kg, po bid; assay type: organism-based; settings: in vivo
[31] = test system: Hepatitis B virus; assay: Antiviral activity against HBV in Balb/c mouse model infected with adeno-associated virus harbouring HBV 1.3 genome assessed as reduction in cytoplasmic HBcAg level at 50 to 75 mg/kg, po bid for 4 weeks by IHC analysis; assay type: functional, organism-based; settings: dose 50-75 mg/kg
[32] = test system: Hepatitis B virus; assay: Antiviral activity against HBV in Balb/c mouse model infected with adeno-associated virus harbouring HBV 1.3 genome assessed as reduction in plasma HBeAg level at 100 mg/kg, po bid for 7 weeks followed by drug removal measured after 8 weeks by chemiluminescence immunoassay; assay type: functional, organism-based
[33] = test system: Hepatitis B virus; assay: Antiviral activity against HBV in mouse model infected with adeno-associated virus harbouring HBV genome assessed as log reduction in HBeAg at 20 mg/kg, po qd for 8 weeks; assay type: functional
[34] = test system: Hepatitis B virus; assay: Antiviral activity against HBV in mouse model infected with adeno-associated virus harbouring HBV genome assessed as log reduction in HBsAg at 20 mg/kg, po qd for 8 weeks; assay type: functional
[35] = test system: Hepatitis B virus; assay: Antiviral activity against HBV in mouse model infected with adeno-associated virus harbouring HBV genome assessed as log reduction in HBV DNA at 20 mg/kg, po qd for 8 weeks; assay type: functional

Structure (SMILES)	Activity [1]	CC50 at 192 h [2] [µM]	AUClast [3] [ng·h/mL]	Activity [4]	inhibition [5]	Cmax [8] [ng/mL]	inhibition [9]	Tmax [12] [h]	Activity [13]	AUClast [20] [ng·h/mL]	Cmax [21] [ng/mL]	also measured
N#Cc1ccc(Cn2nc(-c3cc(Cl)c(NCCCO)nc3F)c3ccccc3c2=O)cc1	Dose-Dependent Effect	> 100	498	Active	inactive	62.2	inactive	2.67	Dose-Dependent Effect			AUC(0-t) at 24 h [6]: 61.4 ng·h/mL; Cmax [7]: 27 ng/mL; half-life [10]: 0.99 h; Tmax [11]: 2 h
N#Cc1ccc(Cn2nc(-c3cc(Cl)c(NCCC(=O)O)nc3F)c3ccccc3c2=O)cc1	Dose-Dependent Effect	> 100		Active	inactive		inactive		Dose-Dependent Effect			EC50 [14]: 1.29 µM and 0.17 µM
C=C1[C@H](CO)[C@@H](O)C[C@@H]1n1cnc2c(=O)[nH]c(N)nc21 [ENTECAVIR ANHYDROUS]		> 1										Activity [15]: inactive; Activity [16]: Active; Activity [17]: Active; Activity [18]: inactive; Activity [19]: inactive
CC(C)OC(=O)[C@@H](C)N[P@](=O)(OCCCNc1nc(F)c(-c2nn(Cc3ccc(C#N)cc3)c(=O)c3ccccc23)cc1Cl)Oc1ccccc1 (single isomer, unassigned)			2727			321				186	48.2	
CC(C)[C@H](N)C(=O)OCCCNc1nc(F)c(-c2nn(Cc3ccc(C#N)cc3)c(=O)c3ccccc23)cc1Cl	Dose-Dependent Effect	63.1	13560	Active	inactive	3729	inactive	1.67	Dose-Dependent Effect	2296	1065	Activity [22]: Dose-Dependent Effect; Activity [23]: Active; t1/2 [24]: 2.32 h; Activity [25]: Dose-Dependent Effect; Tmax [26]: 0.42 h; Activity [27]: Active; t1/2 [28]: 2.85 h; Activity [29]: Dose-Dependent Effect; Activity [30]: Non-Toxic; Activity [31]: Dose-Dependent Effect; Activity [32]: Active
CCOC(=O)C1=C(CN2CCN3C(=O)N(CC(C)(C)C(=O)O)C[C@@H]3C2)N=C(c2nccs2)N[C@H]1c1cccc(F)c1C [LINVENCORVIR]												log(activity) [33]: 1.5; log(activity) [34]: 2.4; log(activity) [35]: 3
